Source: patent US20220227772A1, “DEUTERATED TRIAZOLOPYRIMIDINES” (THE TRUSTEES OF THE UNIVERSITY OF PENNSYLVANIA, priority 2019, published 2022)
Where two headings read alike, the source gives them in different places.

What was measured:
[1] = system: acetylated α-tubulin in QBI293 cells; assay: QBI293 cell-based microtubule stabilization assay, acetyl-tubulin ELISA; details: 4 h incubation
Method: (§1) The HEK293 cell subclone, QBI293, was maintained in DMEM supplemented with 10% fetal calf or bovine serum, 1% penicillin/streptomycin antibiotic solution and 1% glutamine at 37° C. in 5% CO2. Cells were plated into 6-well plates at a density of 800,000 cells/well. […] Test compounds were added at multiple concentrations to the test wells and incubated for 4 h. Subsequently, the media was removed and the cells were washed with 1 mL of ice-cold phosphate-buffered saline (PBS). After removal of PBS, 0.2 mL of ice-cold RIPA (0.5% sodium deoxycholate, 0.1% SDS, 1% NP-40, 5 mM EDTA, pH 8.0) containing protease inhibitor mix (1 μg/mL each of pepstatin, leupeptin, TLCK, TPCK and trypsin inhibitor), 1 mM PMSF and 1 μM trichostatin A was added to the wells. The wells were then scraped using a cell scraper and pipetted into 1.5 mL microfuge tubes. The tubes were sonicated with a handheld sonicator at 20× on a power setting of 2, followed by centrifugation for 30 min at 15,000 rpm at […]. Supernatants were removed and quantified for protein concentration and the acetyl-tubulin levels were determined using an ELISA as described.
(§2) The enzyme-linked immunosorbent assay (ELISA) was performed as previously described in Brunden, 2011, Pharmacological Research, 63:341, which is incorporated by reference herein. Briefly, 384-well plates were coated with 12G10 α-tubulin antibody (10 μg/mL; Covance, Princeton, N.J., USA) in 30 μL of cold 0.1 M bicarbonate buffer. 12G10 anti-α-tubulin antibody was originally deposited to the Developmental Studies Hybridoma Bank by Frankel and Nelsen. After overnight incubation at 4° C., the plates were blocked in Block Ace solution (Bio-Rad, Hercules, Calif., USA) for a minimum of 24 hours at 4° C. QBI-293 cell homogenates were diluted in C buffer (0.02 M sodium phosphate, 2 mM EDTA, 0.4 M NaCl, 1% BSA, 0.005% Thimerosal, pH 7.0). Typically, […] dilutions from 266 ng/μL to 22.2 ng/μL for QBI cells were performed and 30 μL of sample were added to wells in duplicate. Plates were sealed, centrifuged, and incubated overnight at 4° C. Following incubation with antigen, wells were aspirated and washed with PBS containing 0.05% Tween-20 and 0.005% thimerosal (PBS-Tween buffer). A horseradish peroxidase (HRP)-acetyl-tubulin reporter antibody was prepared by conjugating acetyl-tubulin primary antibody (Sigma Aldrich; clone 6-11B-1) to HRP using a commercially-available peroxidase labeling kit (Roche Applied Science, Indianapolis, Ind., USA). The HRP-acetyl-tubulin reporter antibody (1:1,000 v/v; Sigma Aldrich) or pre-conjugated HRP-alpha-tubulin (1:5,000 v/v; ProteinTech Group, Chicago, Ill., USA) diluted in C buffer were added to appropriate wells (30 μL per well). The plates were sealed and incubated at room temperature for 4 hours on a platform rocker, followed by washing with PBS-Tween buffer. Peroxidase substrate solution (30 μL; KPL, Gaithersburg, Md., USA) was added to each well and the reaction was quenched after 10 min with 10% phosphoric acid (30 μL). Plates were read on a SpectraMax M5 plate reader at an absorbance of 450 nm. The amount of acetyl- and alpha-tubulin protein in each sample was extrapolated using standard curves generated from serial dilutions of known protein standard (acetyl- or alpha-tubulin) concentrations.
(§3) The compounds were evaluated in a QBI293 cell-based MT assay as described in Kovalevich et al., J. Pharmacol. Exp. Ther., 2016, 357, 432-50, which is incorporated by reference herein. In summary, acetylated α-tubulin and total α-tubulin levels were determined by ELISA in cell lysates after 4 h of incubation with test compound at 1 and 10 μM (Table 1).

[2] = system: total α-tubulin in QBI293 cells; assay: QBI293 cell-based MT assay, alpha-tubulin ELISA; details: 4 h incubation
Method: as §1, §2, §3

[3] = Plasma and brain compound levels in wild-type mice; format: in vivo, mouse; details: for Kp at 1 h: brain/plasma, read-out: B/P
Method: Mouse brains were homogenized in 10 mM ammonium acetate, pH 5.7 (1:2; w/v) using a handheld sonic homogenizer. Mouse plasma was obtained from blood that was collected into a 1.5 mL tube containing 0.5M EDTA solution and which was centrifuged for 10 minutes at 4500 g at […]. Aliquots (50 μL) of brain homogenates (50% w/v in 100 mM NH4OAc pH 5.75) or plasma were mixed with 0.2 ml of acetonitrile, centrifuged at 15,000 g, and the resulting supernatant was used for subsequent LC-MS/MS analysis. Compounds were detected using multiple reaction monitoring (MRM) of their specific collision-induced ion transitions. Samples were separated on an Agilent Zorbax C8 column (3.5 μm, 2.1×50 mm) at 35° C., with mobile phase A of 0.1% (v/v) formic acid, and B of acetonitrile with 0.1% (v/v) formic acid and a gradient of increasing B at 0.4 mL/min. To account for possible matrix effects on analytes, standard curves were generated for each compound from brain homogenate and plasma samples. The standard curve samples were extracted and analyzed in an identical fashion as the corresponding tissue-derived samples, and peak areas were plotted against concentration and a linear regression curve was used to obtain estimated concentrations of the tissue-derived samples using the peak areas. […]

[4] = mouse, brain, 1 h @ 5.0 mg/kg, read-out: Brain conc.
[5] = mouse, plasma, 1 h @ 5.0 mg/kg, read-out: Plasma conc.
[6] = scaled to 5 mg/kg, read-out: Brain conc.
[7] = female, mouse, brain, intraperitoneal, 1 h @ 2.5 mg/kg, read-out: Brain conc.
[8] = female, mouse, intraperitoneal, 1 h @ 2.5 mg/kg
[9] = female, mouse, plasma, intraperitoneal, 1 h @ 2.5 mg/kg, read-out: Plasma conc.

Row | SMILES | AcTub (acetylated-tubulin relative to vehicle-treated cells) ([1]; 1 μM) | AcTub (acetylated-tubulin relative to vehicle-treated cells) ([1]; 10 μM) | αTub (α-tubulin relative to vehicle-treated cells) ([2]; 1 μM) | αTub (α-tubulin relative to vehicle-treated cells) ([2]; 10 μM) | also measured
1 | CC(C)[C@@H](C)Nc1c(-c2c(F)cc(F)cc2F)c(Cl)nc2ncnn12 [(R)-5-chloro-N-(3-methylbutan-2-yl)-6-(2,4,6-trifluorophenyl)-[1,2,4]triazolo[1,5-a]pyrimidin-7-amine] | 2.08 ± 0.09 | 2.54 ± 0.10 | 1.10 ± 0.20 | 0.91 ± 0.17 | concentration at 1 h [3, 4]: 812 ± 61 nM; Kp at 1 h ([3]; mouse, 1 h @ 5.0 mg/kg): 2.5; concentration at 1 h [3, 5]: 320 ± 93 nM
2 | C[C@H](Nc1c(-c2c(F)cc(F)cc2F)c(Cl)nc2ncnn12)C(C)(C)C [(S)-5-chloro-N-(3,3-dimethylbutan-2-yl)-6-(2,4,6-trifluorophenyl)-[1,2,4]triazolo[1,5-a]pyrimidin-7-amine] | 1.03 ± 0.01 | 3.05 ± 0.18 | 0.80 ± 0.06 | 0.83 ± 0.06 | –
3 | [2H]C(C)(Nc1c(-c2c(F)cc(F)cc2F)c(Cl)nc2ncnn12)C(C)C (single isomer, unassigned) [5-chloro-N-(3-methylbutan-2-yl-2-d)-6-(2,4,6-trifluorophenyl] [5-chloro-N-(3-methylbutan-2-yl-2-d)-6-(2,4,6-trifluorophenyl)-[1,2,4]triazolo[1,5-a]pyrimidin-7-amine] | – | – | – | – | αTub (α-tubulin relative to vehicle-treated cells) ([2]; 1 μM, enantiomer 1): 1.16 ± 0.04; αTub (α-tubulin relative to vehicle-treated cells) ([2]; 1 μM, enantiomer 2): 0.93 ± 0.05; αTub (α-tubulin relative to vehicle-treated cells) ([2]; 10 μM, enantiomer 1): 1.20 ± 0.01; αTub (α-tubulin relative to vehicle-treated cells) ([2]; 10 μM, enantiomer 2): 0.93 ± 0.02; Plasma conc. ([3]; scaled to 5 mg/kg): 398 nM; concentration at 1 h [3, 6]: 1102 nM
4 | [2H]C(C)(Nc1c(-c2c(F)cc(F)cc2F)c(Cl)nc2ncnn12)C(C)C (single isomer, unassigned) [5-chloro-N-(3-methylbutan-2-yl-2-d)-6-(2,4,6-trifluorophenyl)-[1,2,4]triazolo[1,5-a]pyrimidin-7-amine] | – | – | – | – | concentration at 1 h [3, 7]: 551 ± 56 nM; Kp at 1 h [3, 8]: 2.8; concentration at 1 h [3, 9]: 199 ± 46 nM
5 | CC(C)[C@H](C)Nc1c(-c2c(F)cc(F)cc2F)c(Cl)nc2ncnn12 [(S)-5-chloro-N-(3-methylbutan-2-yl)-6-(2,4,6-trifluorophenyl)-[1,2,4]triazolo[1,5-a]pyrimidin-7-amine] | 1.22 ± 0.10 | 2.46 ± 0.18 | 0.94 ± 0.04 | 0.88 ± 0.02 | –
6 | C[C@@H](Nc1c(-c2c(F)cc(F)cc2F)c(Cl)nc2ncnn12)C(C)(C)C [(R)-5-chloro-N-(3,3-dimethylbutan-2-yl)-6-(2,4,6-trifluorophenyl)-[1,2,4]triazolo[1,5-a]pyrimidin-7-amine] | 5.11 ± 0.47 | 7.19 ± 0.31 | 1.00 ± 0.06 | 1.03 ± 0.12 | concentration at 1 h [3, 4]: 153 ± 33 nM; Kp at 1 h ([3]; mouse, 1 h @ 5.0 mg/kg): 2.2; concentration at 1 h [3, 5]: 69 ± 11 nM
7 | [2H][C@](C)(Nc1c(-c2c(F)cc(F)cc2F)c(Cl)nc2ncnn12)C(C)(C)C (single isomer, unassigned) | 5.71 ± 0.13 | 7.69 ± 0.49 | 1.00 ± 0.03 | 1.05 ± 0.09 | concentration at 1 h [3, 7]: 296 ± 48 nM; Kp at 1 h [3, 8]: 2.9; concentration at 1 h [3, 9]: 104 ± 14 nM; Plasma conc. ([3]; scaled to 5 mg/kg): 208 nM; concentration at 1 h [3, 6]: 592 nM
8 | [2H][C@@](C)(Nc1c(-c2c(F)cc(F)cc2F)c(Cl)nc2ncnn12)C(C)(C)C (single isomer, unassigned) | 1.10 ± 0.07 | 2.92 ± 0.04 | 1.07 ± 0.05 | 0.85 ± 0.05 | –
